Laboratory results: US20150231045A1, “ANTI-DANDRUFF COMPOSITION COMPRISING 1-ACETOXYCHAVICOL ACETATE” (AnalytiCon Discovery GmbH, priority 2012, published 2015)
In brackets after ≈: the same amount, converted by molar mass. One block for each compound: values may come before it.

Columns and labels:
[1] = test system: Malassezia sympodialis ATCC 42132; experiment: Classic assay for susceptibility testing of planktonically growing cells (OD580); format: cell-based, Malassezia sympodialis (former M. furfur); details: for inhibition at 12.5 µg/mL: read-out: Classic Assay, planktonic growth, inhibition
Experimental: Routine cultivation of M. sympodialis: M. sympodialis (former M. furfur) CBS 1878 was obtained from the Centraalbureau voor Schimmelcultures Fungal Biodiversity Centre. It was routinely grown on Dixon-agar plates in a humid atmosphere (“wet box”) at 33° C., or in Sabouraud-Maltose (SM) broth complemented with Tween80 and Glycerin-monostearate for liquid cultures in shake-flasks (300 ml operated with 50 ml medium) with agitation (150 rpm).
(§1) General Assay Conditions • 1. Strain: Malassezia sympodialis ATCC 42132 • 2. Growth conditions: • Sabouraud-medium supplemented with dextrose (20 g/l), Tween 80 (1%) and glycerol-monostearat (emulsifier; 0.05%). Static incubation in flat-bottom 96-well microtiterplates (total volume 340 μl, working volume 200 μl; surface area 148 mm2). Incubation at 33° C. in humid atmosphere (wet-box) to avoid dessication. Incubation periods vary according to the assay format. Suspensions used for inoculation were adjusted to an optical density (OD580) of 0.1 • 3. […] Controls • Sterile media was used as negative control; cells cultivated in absence of any test compound but in presence of equal amounts of DMSO compared to samples (see below) were regarded as positive control (unrestricted growth) • 5. All compounds (test-samples and references) are dissolved in DMSO. […] Unless otherwise stated, test compound concentration was 12.5 μg/ml
Routine susceptibility testing of M. sympodialis in high throughput format was done by simultaneous addition of test compounds and inoculum. Seven days after inoculation and when planktonic growth of the untreated control ceased, the effect of the test compounds was evaluated by comparison of the turbidity (optical density, OD580) of treated and untreated samples (control; 100%).
The classic assay is the platform to determine dose-response relationships, where serial dilutions of compounds are evaluated. For description of these relationships, values for the minimal effective concentration and the concentration effective in reducing cell proliferation by 50% (IC50) are generated.

[2] = test system: Malassezia sympodialis ATCC 42132; experiment: Mid-log assay (compound added at half-maximum OD580); format: cell-based, Malassezia sympodialis (former M. furfur); details: Example 7; for inhibition at 12.5 µg/mL: Malassezia sympodialis, ATCC42132, read-out: Mid-log Assay %-inhibition compared to benchmark
Experimental: Cells are cultivated to half-maximal OD580 before test compounds are added (arrow). Value of OD580 at time of sample application is set 100%. […] Blue diamonds, untreated control cells; pink rectangles, cells treated with test compounds.
as §1
For the so called “mid-log assay”, cells are grown to half-maximum optical density before test compounds are added. […] Numbers for OD580 of untreated control samples and samples treated with test compounds are compared to t0-value, which is defined as the 100% level. The value for OD580 of the untreated control sample in stationary phase (end of experiment) is defined as the “control-level” (for unrestricted growth). Values for control-levels are solely dependent on t0-values and therefore vary with each experiment; thus, they cannot be standardised.
Exponentially growing cells (mid-log) are in a defined active state with respect to proliferation and metabolic activity. […] Moreover, the mode of inhibition caused by the test compound can be determined (see above).

[3] = Malassezia sympodialis, ATCC42132, Example 7, 12.5 μg/ml unless otherwise stated
[4] = 12.5 μg/ml unless otherwise stated

Compound: C=CC(OC(C)=O)c1ccc(OC(C)=O)cc1 (stereo not drawn) [1-acetoxychavicol, 1-acetoxychavicol acetate]
inhibition at 12.5 µg/mL [1, 3]: 61%
Mid-log Assay Level-% ([2]; OD580 at addition = 100%, Control-level 399): 379%
inhibition at 12.5 µg/mL [2, 4]: 11%

IC50 ([1]; Malassezia sympodialis, ATCC42132, serial dilutions, classic assay, read-out: IC50 (concentration reducing cell proliferation by 50%), planktonic growth): 0.2 µg/mL (≈ 0.683 µM)
Compound: CC(C)(C)C(=O)C(Oc1ccc(Cl)cc1)n1ccnc1 (stereo not drawn) [Crinipan, climbazole]
inhibition at 12.5 µg/mL [1, 3]: 93%
inhibition at 12.5 µg/mL [2, 4]: 66%

Compound: Zinc Pyrithione
Classic Assay, planktonic growth, inhibition ([1]; Example 7, 12.5 μg/ml unless otherwise stated): 73% inhibition
IC50 (concentration reducing cell proliferation by 50%), planktonic growth ([1]; serial dilutions, classic assay): 12.4 µg/mL
Mid-log Assay %-inhibition compared to benchmark [2, 4]: 16%
